Test results from patent publication US20230144023A1, “USE OF BUTYLPHTHALIDE AND DERIVATIVE THEREOF” (CSPC NBP PHARMACEUTICAL CO., LTD, priority 2020, published 2023).
Where “and” joins values, the source holds several entries; their conditions need not be identical. Equal entries are not always repeated. Structures can show the parent of a compound that is named as a salt. Where two headings read alike, the source gives them in different places.

Columns and labels:
[1] = test system: chemotherapy-induced peripheral neuropathy; settings: cited from earlier work
[2] = test system: chemotherapy-induced peripheral neuropathy; settings: treatment of CIPN; guideline rating; cited from earlier work
MM.1S xenograft tumor = test: Influence of NBP on in vivo anti-tumor efficacy of Bortezomib, MM.1S xenograft (Example 8); parameters: species or system Nu/Nu mice; settings: for T/C % / TGI % / RTV / TV: day 14; for T/C % / TGI % / RTV / TV / Tumor weight inhibition rate / Tumor weight: Bor 0.5 mg/kg, Pal 70 mg/kg, NBP 60 mg/kg, alone or combined; for RTV / TV / Tumor weight: mean, n=6; for Tumor weight inhibition rate / Tumor weight: end of experiment; for Tumor weight: in g (unit assumed); for body weights of the mice: mouse, in vivo
Experimental: After in vitro resuscitation and passage of MM.1S cells to a sufficient amount, the cells were counted by a microscope, and diluted with a serum-free medium to adjust the cell count to about 1×10^8 cells/mL. The cell suspension was kept in an ice-water bath. The MM.1S cell suspension was extracted by a sterile syringe and inoculated into the subcutaneous tissue of the forelimb axilla of the Nu/Nu mice. […] Monotherapy group of Palbociclib: intragastric administration at 70 mg/kg, qd (the administration was commenced on day 0); […] The solvent group was given the solvent at the same frequency and with the same administration method as Bortezomib and NBP. The administration period was 16 days, and the administration volume was 10 mL/kg. […] Animals were weighed at set time once per day after the commencement of administration. After animals were grouped, the long diameter and the short diameter of the tumor were measured twice every week. […] V=1⁄2×A×B^2 […] (4) Tumor growth inhibition rate: Note: V: tumor volume; A: tumor length; B: tumor width; RTV: relative tumor volume; TVnd: tumor volume on day n; TV0d: tumor volume on day 0; […]: mean relative tumor volume on day n; TVXn: mean tumor volume of the therapy group on day n; TVX0: mean tumor volume of the therapy group on day 0; TVMn: mean tumor volume of the solvent group on day n; and TVM0: mean tumor volume of the solvent group on day 0 At the end of the experiment, after the animals were euthanized by CO2 asphyxiation, the tumors were excised and weighed.

[3] = test system: paclitaxel (albumin bound) chemotherapy-induced peripheral neuropathy; test: Paclitaxel (albumin bound) chemotherapy-induced peripheral neuropathy in rats, butylphthalide intragastric administration (Example 2); format: in vivo, SD (Sprague Dawley) rats; settings: duloxetine hydrochloride 15 mg/kg qd, compared with the model group
Experimental: The model group was given vegetable oil at the same frequency and with the same administration method as NBP. The normal group was given normal saline at the same frequency and with the same administration method as ab-PTX, and was given vegetable oil at the same frequency and with the same administration method as NBP. […] (2) Thermal pain threshold: measurements were performed on days −1, 7, and 14. Method: IITC Life Science Electronic Von Frey Anesthesio meter was used and the intensity of the light source was adjusted to obtain a baseline of thermal pain threshold of about 3-6 s. […] The rats were placed in a plastic compartment on a glass plate, to make the planta centers of the rats be exposed to the light source. […] (3) Mechanical stimulus pain threshold: measurements were performed on days 0, 6, and 13. Method: the rats were placed in a plastic compartment on a wire mesh, left to stand still for 15 min, stimulated using a stimulation probe with a diameter of 0.4 mm of the IITC Life Science Electronic Von Frey Anesthesio meter at the planta centers of the rats by gradually increasing the force until reflexive withdrawal of the rats.

[4] = cited from earlier work
[5] = test system: MM.1S, Jeko-1, HT29, A549, DU145; test: In vitro proliferation of 5 cell strains, summary statements (Example 7); format: cell-based, Human; settings: Homo sapiens; range over MM.1S, Jeko-1, HT29, A549, DU145; combined therapy with 30 μM NBP
Experimental: Different drug concentration gradients were set for each group.
Monotherapy group of NBP: NBP was 2× serially diluted from an initial concentration of 480 μM to 8 concentrations: 480, 240, 120, 60, 30, 15, 7.5, and 3.75 μM, respectively.
The action time of the drug was 72 h.
3 replicate wells were set for each concentration of each drug, and blank wells (only culture medium was present, and no tumor cells were inoculated) and normal wells (a culture medium inoculated with tumor cells, drug concentration was 0) were set.

[6] = PK of Bortezomib and butylphthalide in plasma of MM.1S tumor-bearing mice (Example 8); format: in vivo, Nu/Nu mice
Experimental: Monotherapy group of Bortezomib: administered by intraperitoneal injection at 0.5 mg/kg, biw (on days 0, 3, 7, 10, and 15);
Monotherapy group of NBP: administered by transoral gavage at 60 mg/kg, bid (the administration was commenced on day 0), and the second dose of NBP was administered with an interval from the first dose of ≥4 h;
Monotherapy group of Palbociclib: intragastric administration at 70 mg/kg, qd (the administration was commenced on day 0);
Combined therapy group of NBP/Bortezomib: the administration frequency and dose were the same as the frequency and dose of the monotherapy group of NBP and the monotherapy group of Bortezomib, respectively.
Combined therapy group of Bortezomib/Palbociclib: the administration frequency and dose were the same as the frequency and dose of the monotherapy group of Bortezomib and the monotherapy group of Palbociclib, respectively.
Combined therapy group of NBP/Bortezomib/Palbociclib: the administration frequency and dose were the same as the frequency and dose of the monotherapy group of NBP, the monotherapy group of Bortezomib, and the monotherapy group of Palbociclib, respectively.
Before administration of the last dose of Bortezomib (0 h), and 5 min, 15 min, 30 min, 1 h, 2 h, 4 h, 8 h, 24 h after the administration, blood was sampled (as detailed in Table 8) (except that blood was sampled from the mice in the solvent group only at 0 h), anticoagulated with heparin, and centrifuged to separate plasma, which was stored at −80° C. for later use. Bortezomib and butyphthalide in the plasma were determined by protein precipitation-LC/MS/MS.

[7] = prevention of CIPN, guideline rating
[8] = prevention of CIPN, patients receiving cisplatin/oxaliplatin-based chemotherapy
[9] = prevention of CIPN, patients receiving paclitaxel/carboplatin chemotherapy
[10] = prevention of CIPN, patients receiving oxaliplatin treatment
[11] = Bor 0.5 mg/kg i.p., Pal 70 mg/kg, NBP 60 mg/kg, mean ± SD, n=6

## CC(=O)N[C@@H](CS)C(=O)O [Acetylcysteine]
[1]; [7]
  Efficacy: Low
  Safety: Low

## CN(C)CCC=C1c2ccccc2CCc2ccccc21 [Amitriptyline]
[1]; [7]
  Efficacy: No evidence
  Safety: Moderate

## N[C@@H](CCC(=O)N[C@@H](CS)C(=O)NCC(=O)O)C(=O)O [Glutathione]
[1]; [8]
  Efficacy: Low
  Safety: Low
[1]; [9]
  Efficacy: Low
  Safety: Low

## CNCC[C@H](Oc1cccc2ccccc12)c1cccs1 [Duloxetine]
[2]
  Efficacy: Moderate
  Safety: Low

## rhuLIF: intervention for prevention of CIPN listed in the ASCO guideline table
[1]
  Safety: Low
[1]; [7]
  Efficacy: No evidence

## COc1ccc(C(CN(C)C)C2(O)CCCCC2)cc1 (centres unmarked) [Venlafaxine]
[1]; [7]
  Efficacy: Low
  Safety: Low

## Vitamin E
[1]; [7]
  Efficacy: Low
  Safety: Low

## NC(=O)N1c2ccccc2C=Cc2ccccc21 [Carbamazepine]
[1]; [7]
  Efficacy: Low
  Safety: Low

## N[C@@H](CCC(=O)O)C(=O)O [Glutamate]
[1]; [7]
  Efficacy: Low
  Safety: Low

## COCCOC(=O)C1=C(C)NC(C)=C(C(=O)OC(C)C)C1c1cccc([N+](=O)[O-])c1 (centres unmarked) [Nimodipine]
[1]; [7]
  Safety: Moderate

## CC(=O)c1c(C)c2cnc(Nc3ccc(N4CCNCC4)cn3)nc2n(C2CCCC2)c1=O [Palbociclib]
MM.1S xenograft tumor
  T/C %: 44.4%
  TGI %: 56.3%
  RTV: 4.3
  TV: 605.4 mm^3
  Tumor weight inhibition rate: 66.6%
  Tumor weight: 0.550
  body weights of the mice: no significant difference

## CC(=O)O[C@H](CC(=O)[O-])C[N+](C)(C)C [Acetyl L-carnitine]
[1]; [7]
  Efficacy: Low
  Safety: Low
[2]
  Efficacy: Low
  Safety: Moderate

## CC1=C(/C=C/C(C)=C/C=C/C(C)=C/C(=O)O)C(C)(C)CCC1 [All-trans retinoic acid]
[1]; [7]
  Efficacy: Low
  Safety: Moderate

## Nc1nnc(-c2cccc(Cl)c2Cl)c(N)n1 [Lamotrigine]
[2]
  Efficacy: No evidence
  Safety: Low

## Omega-3-fatty acid
[1]; [10]
  Efficacy: Low
  Safety: Low

## CCN(CC)C(=S)S [Diethyldithio-carbamate]
[1]; [7]
  Safety: High

## CNCC[C@H](Oc1cccc2ccccc12)c1cccs1 [duloxetine hydrochloride, Duloxetine hydrochloride]
[3]; NBP 3, 10 and 30 mg/kg bid, intragastric, throughout administration
  body weights of the rats: significantly increase
[3]; day 13, NBP 10 and 30 mg/kg bid, P<0.05
  mechanical pain threshold: significantly decreased
[3]; day 14, NBP 3, 10 and 30 mg/kg bid, P<0.05
  thermal pain threshold: significantly decreased

## CC[C@]1(O)C[C@H]2CN(CCc3c([nH]c4ccccc34)[C@@](C(=O)OC)(c3cc4c(cc3OC)N(C=O)[C@H]3[C@@](O)(C(=O)OC)[C@H](OC(C)=O)[C@]5(CC)C=CCN6CC[C@]43[C@@H]65)C2)C1 [vincristine]
[4]; when the chemotherapy is stopped
  patients experiencing coasting: 30%

## CC(C)C[C@H](NC(=O)[C@H](Cc1ccccc1)NC(=O)c1cnccn1)B(O)O [Bortezomib]
[5]
  IC50: 1 to 20 nM
A549
  IC50: 11.8 nM and 13.3 nM and 10.6 nM and 11.9 nM
MM.1S
  IC50: 2.55 nM and 2.94 nM and 2.99 nM and 2.83 nM
DU145
  IC50: 12.8 nM and 11.9 nM and 17.1 nM and 13.9 nM
[6]; [11]
  CI of Bortezomib: 1.81 ± 0.56 L/h/kg
  Vd of Bortezomib: 14.2 ± 3.2 L/kg
[6]; Bortezomib 0.5 mg/kg
  influence of Bortezomib on the pharmacokinetic behavior of NBP in mice: substantially did not affect
[6]; Nu/Nu, mouse, plasma, ip, Bor 0.5 mg/kg i.p., Pal 70 mg/kg, NBP 60 mg/kg, mean ± SD, n=6, read-out: AUC0-t of Bortezomib in plasma
  AUC(0-t): 290 ± 104 ng·h/mL
[6]; Nu/Nu, mouse, plasma, ip, Bor 0.5 mg/kg i.p., Pal 70 mg/kg, NBP 60 mg/kg, mean ± SD, n=6, read-out: MRT0-t of Bortezomib
  MRT last: 5.9 ± 0.8 h
[6]; Nu/Nu, mouse, plasma, ip, Bor 0.5 mg/kg i.p., Pal 70 mg/kg, NBP 60 mg/kg, mean ± SD, n=6, read-out: t1/2 of Bortezomib in plasma (converted)
  half-life: 2.36 ± 0.0483 days
[6]; Nu/Nu, mouse, plasma, ip, after last Bortezomib dose, Bor 0.5 mg/kg i.p., Pal 70 mg/kg, NBP 60 mg/kg, mean ± SD, n=6, read-out: Cmax of Bortezomib in plasma
  Cmax: 113 ± 8 ng/mL
HT29
  IC50: 4.43 nM and 4.97 nM and 5.65 nM and 5.02 nM
MM.1S xenograft tumor
  T/C %: 98.0%
  TGI %: 8.7%
  RTV: 9.6
  TV: 1124.8 mm^3
  Tumor weight inhibition rate: 22.2%
  Tumor weight: 1.282
  body weights of the mice: no significant difference
Jeko-1
  IC50: 4.83 nM and 3.51 nM and 4.47 nM and 4.27 nM
[4]; 2-3 months after treatment
  patients still having clinically significant neuropathy: 60-85%
[4]; human, in vivo
  additional patients with moderate to severe neurotoxicity: ~30%
  patients with severe painful sensory neuropathy: 50%

## NCC1(CC(=O)O)CCCCC1 [Gabapentin]
[2]
  Efficacy: Low
  Safety: Low

## NCCCNCCSP(=O)(O)O [Amifostine]
[1]; [7]
  Efficacy: Low
  Safety: Moderate

## Amitriptyline/nortriptyline
[2]
  Efficacy: Low
